How the values were obtained:
Type in all cases: biochemical
NSD3 = target: T1, NSD3 (Homo sapiens, UniProt Q9BZ95); assay: Methyltransferase inhibition panel: NSD3; settings: control compound; substrate Nucleosomes 0.05 mg/mL
T1 sequence (Q9BZ95 1-1437): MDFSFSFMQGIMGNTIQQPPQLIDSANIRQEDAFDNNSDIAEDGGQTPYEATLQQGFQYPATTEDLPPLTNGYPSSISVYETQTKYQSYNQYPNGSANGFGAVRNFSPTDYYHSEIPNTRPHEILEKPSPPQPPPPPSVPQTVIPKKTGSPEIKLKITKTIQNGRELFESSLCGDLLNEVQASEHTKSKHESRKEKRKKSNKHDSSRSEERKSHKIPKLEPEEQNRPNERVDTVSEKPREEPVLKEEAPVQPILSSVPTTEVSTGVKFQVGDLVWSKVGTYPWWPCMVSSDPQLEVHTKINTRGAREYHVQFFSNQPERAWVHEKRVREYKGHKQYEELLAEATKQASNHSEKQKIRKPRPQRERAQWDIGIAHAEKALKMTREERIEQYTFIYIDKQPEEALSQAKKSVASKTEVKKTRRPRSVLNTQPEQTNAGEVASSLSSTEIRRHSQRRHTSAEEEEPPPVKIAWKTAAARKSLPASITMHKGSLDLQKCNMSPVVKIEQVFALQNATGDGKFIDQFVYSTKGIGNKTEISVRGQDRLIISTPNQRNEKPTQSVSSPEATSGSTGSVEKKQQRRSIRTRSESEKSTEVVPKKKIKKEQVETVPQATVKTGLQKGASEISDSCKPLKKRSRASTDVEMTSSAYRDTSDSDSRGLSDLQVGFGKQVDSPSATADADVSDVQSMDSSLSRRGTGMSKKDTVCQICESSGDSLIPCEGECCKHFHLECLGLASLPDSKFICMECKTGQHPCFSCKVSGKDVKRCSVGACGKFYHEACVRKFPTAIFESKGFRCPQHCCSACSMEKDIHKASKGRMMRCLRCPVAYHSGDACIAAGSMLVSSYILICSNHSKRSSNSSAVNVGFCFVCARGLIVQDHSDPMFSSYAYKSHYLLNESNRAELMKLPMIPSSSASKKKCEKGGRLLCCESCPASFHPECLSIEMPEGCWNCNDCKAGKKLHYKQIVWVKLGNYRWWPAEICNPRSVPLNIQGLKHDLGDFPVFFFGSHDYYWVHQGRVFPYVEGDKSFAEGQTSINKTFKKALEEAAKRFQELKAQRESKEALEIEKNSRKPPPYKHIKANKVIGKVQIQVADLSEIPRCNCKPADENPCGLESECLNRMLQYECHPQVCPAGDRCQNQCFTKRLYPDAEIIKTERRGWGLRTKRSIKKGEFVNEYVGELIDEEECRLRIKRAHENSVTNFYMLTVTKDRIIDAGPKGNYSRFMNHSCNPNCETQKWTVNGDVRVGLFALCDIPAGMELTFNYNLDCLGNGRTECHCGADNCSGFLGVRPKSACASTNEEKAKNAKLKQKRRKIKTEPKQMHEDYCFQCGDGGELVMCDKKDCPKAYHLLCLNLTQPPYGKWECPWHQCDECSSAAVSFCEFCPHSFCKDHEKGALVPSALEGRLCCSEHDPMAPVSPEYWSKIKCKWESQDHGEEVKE
Description: (§1) The ability of ETP69 to inhibit methyltransferases was tested.

ASH1L = ASH1L (Homo sapiens, UniProt Q9NR48); assay: Methyltransferase inhibition panel: ASH1L; settings: control compound; substrate Nucleosomes 0.05 mg/mL
Description: as §1

SET8 = target: T2, SET8 (Homo sapiens, UniProt Q9NQR1); assay: Methyltransferase inhibition panel: SET8; settings: control compound; substrate Nucleosomes 0.05 mg/mL
T2 sequence (Q9NQR1 1-393): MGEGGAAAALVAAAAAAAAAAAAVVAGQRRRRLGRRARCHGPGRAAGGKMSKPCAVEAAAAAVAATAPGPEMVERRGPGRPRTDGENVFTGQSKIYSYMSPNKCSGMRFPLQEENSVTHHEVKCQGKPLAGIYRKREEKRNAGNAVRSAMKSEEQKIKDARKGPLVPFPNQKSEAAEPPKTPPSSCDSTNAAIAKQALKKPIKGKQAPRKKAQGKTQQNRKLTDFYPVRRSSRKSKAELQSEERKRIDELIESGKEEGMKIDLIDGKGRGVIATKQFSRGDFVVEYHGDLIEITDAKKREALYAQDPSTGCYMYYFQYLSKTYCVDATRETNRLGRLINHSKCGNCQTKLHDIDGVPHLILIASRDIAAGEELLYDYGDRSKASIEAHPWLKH
Description: as §1

DNMT3b/3L = DNMT3b/3L (Homo sapiens, UniProt Q9UBC3); assay: Methyltransferase inhibition panel: DNMT3b/3L; settings: read-out: Control IC50*
Description: as §1

METTL21A = METTL21A (Homo sapiens, UniProt Q8WXB1); assay: Methyltransferase inhibition panel: METTL21A; settings: control compound; substrate HSPA8-[CTD] 2.5 μM
Description: as §1

NSD1 = NSD1 (Homo sapiens, UniProt Q96L73); assay: Methyltransferase inhibition panel: NSD1; settings: control compound; substrate Nucleosomes 0.05 mg/mL
Description: as §1

MLL1 Complex = MLL1 Complex (Homo sapiens, UniProt Q03164); assay: Methyltransferase inhibition panel: MLL1 Complex; settings: control compound; substrate Nucleosomes 0.05 mg/mL
Description: as §1

SUV420H1TV2 = SUV420H1TV2 (Homo sapiens, UniProt Q4FZB7); assay: Methyltransferase inhibition panel: SUV420H1TV2; settings: control compound; substrate Nucleosomes 0.05 mg/mL
Description: as §1

MLL3 Complex = MLL3 Complex (Homo sapiens, UniProt Q8NEZ4); assay: Methyltransferase inhibition panel: MLL3 Complex; settings: control compound; substrate Nucleosomes 0.05 mg/mL
Description: as §1

SETDB1 = SETDB1 (Homo sapiens, UniProt Q15047); assay: Methyltransferase inhibition panel: SETDB1; settings: control compound; substrate Histone H3 5 μM
Description: as §1

DNMT3b = DNMT3b (Homo sapiens, UniProt Q9UBC3); assay: Methyltransferase inhibition panel: DNMT3b; settings: read-out: Control IC50*
Description: as §1

NRMT1 = target: T3, NRMT1 (Homo sapiens, UniProt Q9BV86); assay: Methyltransferase inhibition panel: NRMT1; settings: control compound; substrate RCC1 5 μM
T3 sequence (Q9BV86 1-223): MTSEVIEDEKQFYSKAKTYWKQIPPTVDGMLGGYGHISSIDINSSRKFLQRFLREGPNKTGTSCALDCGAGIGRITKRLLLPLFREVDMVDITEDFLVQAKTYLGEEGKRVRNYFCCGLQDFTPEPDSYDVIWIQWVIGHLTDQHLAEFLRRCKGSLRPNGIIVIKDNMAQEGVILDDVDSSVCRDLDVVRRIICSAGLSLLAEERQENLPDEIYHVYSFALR
Description: as §1

SET7/9 = target: T4, SET7/9 (Homo sapiens, UniProt Q8WTS6); assay: Methyltransferase inhibition panel: SET7/9; settings: control compound; substrate Core Histone 0.05 mg/mL
T4 sequence (Q8WTS6 1-366): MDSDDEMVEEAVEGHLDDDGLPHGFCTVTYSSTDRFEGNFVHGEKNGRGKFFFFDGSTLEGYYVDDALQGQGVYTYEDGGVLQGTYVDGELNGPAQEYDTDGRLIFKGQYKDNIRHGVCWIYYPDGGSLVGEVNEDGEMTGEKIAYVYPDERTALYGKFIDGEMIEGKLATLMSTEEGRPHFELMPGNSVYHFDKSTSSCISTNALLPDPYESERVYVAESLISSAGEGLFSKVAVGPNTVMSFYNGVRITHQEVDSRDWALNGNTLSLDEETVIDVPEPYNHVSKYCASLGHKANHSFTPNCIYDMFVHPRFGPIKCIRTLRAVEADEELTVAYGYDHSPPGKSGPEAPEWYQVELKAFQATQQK
Description: as §1

SET1b Complex = SET1b Complex (Homo sapiens, UniProt Q9UPS6); assay: Methyltransferase inhibition panel: SET1b Complex; settings: control compound; substrate Core Histone 0.05 mg/mL
Description: as §1

SUV39H2 = SUV39H2 (Homo sapiens, UniProt Q9H5I1); assay: Methyltransferase inhibition panel: SUV39H2; settings: control compound; substrate Histone H3 5 μM
Description: as §1

GLP = target: T5, GLP (Homo sapiens, UniProt Q9H9B1); assay: Methyltransferase inhibition panel: GLP; settings: read-out: Control IC50*
T5 sequence (Q9H9B1 1-1298): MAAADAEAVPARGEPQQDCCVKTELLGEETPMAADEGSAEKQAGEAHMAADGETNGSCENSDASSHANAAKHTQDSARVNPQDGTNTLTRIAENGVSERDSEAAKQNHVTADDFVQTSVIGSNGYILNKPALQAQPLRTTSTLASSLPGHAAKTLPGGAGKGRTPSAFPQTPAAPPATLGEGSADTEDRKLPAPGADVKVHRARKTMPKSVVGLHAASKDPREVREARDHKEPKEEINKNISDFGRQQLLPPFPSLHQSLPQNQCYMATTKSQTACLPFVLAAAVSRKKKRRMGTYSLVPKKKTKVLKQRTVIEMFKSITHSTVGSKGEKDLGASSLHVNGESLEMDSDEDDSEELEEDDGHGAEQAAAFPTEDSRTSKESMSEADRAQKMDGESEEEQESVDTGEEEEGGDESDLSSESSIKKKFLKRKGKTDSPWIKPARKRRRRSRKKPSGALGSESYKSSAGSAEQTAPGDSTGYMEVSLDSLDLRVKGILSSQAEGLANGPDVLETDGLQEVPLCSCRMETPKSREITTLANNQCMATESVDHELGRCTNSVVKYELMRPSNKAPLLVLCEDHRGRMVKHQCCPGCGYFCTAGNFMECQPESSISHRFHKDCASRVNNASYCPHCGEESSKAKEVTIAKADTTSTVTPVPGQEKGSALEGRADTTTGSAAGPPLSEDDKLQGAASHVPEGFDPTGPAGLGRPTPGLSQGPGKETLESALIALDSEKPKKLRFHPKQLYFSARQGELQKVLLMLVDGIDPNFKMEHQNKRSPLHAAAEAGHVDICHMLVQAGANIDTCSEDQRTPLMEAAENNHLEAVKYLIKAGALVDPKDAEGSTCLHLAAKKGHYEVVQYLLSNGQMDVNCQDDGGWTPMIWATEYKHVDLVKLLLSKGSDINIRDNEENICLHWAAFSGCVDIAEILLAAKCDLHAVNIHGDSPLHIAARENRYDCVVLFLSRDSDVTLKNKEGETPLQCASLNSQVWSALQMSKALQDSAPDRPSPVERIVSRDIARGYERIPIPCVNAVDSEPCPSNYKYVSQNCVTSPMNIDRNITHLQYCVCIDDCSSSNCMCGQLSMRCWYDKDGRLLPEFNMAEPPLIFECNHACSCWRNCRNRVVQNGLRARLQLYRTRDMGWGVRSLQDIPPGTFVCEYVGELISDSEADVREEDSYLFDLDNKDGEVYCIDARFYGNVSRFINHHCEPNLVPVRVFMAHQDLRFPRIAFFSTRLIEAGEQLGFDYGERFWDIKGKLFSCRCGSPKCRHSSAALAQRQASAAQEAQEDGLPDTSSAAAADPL
Description: as §1

PRMT6 = PRMT6 (Homo sapiens, UniProt Q96LA8); assay: Methyltransferase inhibition panel: PRMT6; settings: control compound; substrate GST-GAR 5 μM
Description: as §1

DNMT3a = DNMT3a (Homo sapiens, UniProt Q9Y6K1); assay: Methyltransferase inhibition panel: DNMT3a; settings: read-out: Control IC50*
Description: as §1

SETD2 = SETD2 (Homo sapiens, UniProt Q9BYW2); assay: Methyltransferase inhibition panel: SETD2; settings: control compound; substrate Nucleosomes 0.05 mg/mL
Description: as §1

MLL4 Complex = MLL4 Complex (Homo sapiens, UniProt Q9UMN6); assay: Methyltransferase inhibition panel: MLL4 Complex; settings: control compound; substrate Nucleosomes 0.05 mg/mL
Description: as §1

SMYD3 = target: T6, SMYD3 (Homo sapiens, UniProt Q9H7B4); assay: Methyltransferase inhibition panel: SMYD3; settings: control compound; substrate MEKK2 0.5 μM
T6 sequence (Q9H7B4 1-428): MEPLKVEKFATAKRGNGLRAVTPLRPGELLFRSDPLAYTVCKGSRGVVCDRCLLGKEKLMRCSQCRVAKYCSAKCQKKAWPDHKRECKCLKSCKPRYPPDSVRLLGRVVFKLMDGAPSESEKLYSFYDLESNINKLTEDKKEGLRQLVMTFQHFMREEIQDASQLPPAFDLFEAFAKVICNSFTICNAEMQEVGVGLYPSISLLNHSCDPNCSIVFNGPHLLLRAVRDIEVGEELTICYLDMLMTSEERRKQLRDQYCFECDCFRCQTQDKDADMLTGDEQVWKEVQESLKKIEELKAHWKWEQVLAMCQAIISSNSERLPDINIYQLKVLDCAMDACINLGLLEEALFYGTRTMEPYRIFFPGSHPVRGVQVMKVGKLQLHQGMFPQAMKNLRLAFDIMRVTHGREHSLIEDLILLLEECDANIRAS
Description: as §1

PRMT3 = PRMT3 (Homo sapiens, UniProt O60678); assay: Methyltransferase inhibition panel: PRMT3; settings: control compound; substrate Histone H4 5 μM
Description: as §1

MLL2 Complex = MLL2 Complex (Homo sapiens, UniProt O14686); assay: Methyltransferase inhibition panel: MLL2 Complex; settings: control compound; substrate Nucleosomes 0.05 mg/mL
Description: as §1

Chain of MLL2 Complex (O14686 5319-5537): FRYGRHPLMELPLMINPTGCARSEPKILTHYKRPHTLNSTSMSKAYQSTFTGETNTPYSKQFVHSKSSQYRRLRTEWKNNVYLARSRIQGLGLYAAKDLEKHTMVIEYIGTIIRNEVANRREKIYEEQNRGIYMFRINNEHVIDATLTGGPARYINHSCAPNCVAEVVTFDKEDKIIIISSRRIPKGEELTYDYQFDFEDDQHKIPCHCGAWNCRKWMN
Chain of MLL2 Complex (Q9UBL3 whole entry, further chain): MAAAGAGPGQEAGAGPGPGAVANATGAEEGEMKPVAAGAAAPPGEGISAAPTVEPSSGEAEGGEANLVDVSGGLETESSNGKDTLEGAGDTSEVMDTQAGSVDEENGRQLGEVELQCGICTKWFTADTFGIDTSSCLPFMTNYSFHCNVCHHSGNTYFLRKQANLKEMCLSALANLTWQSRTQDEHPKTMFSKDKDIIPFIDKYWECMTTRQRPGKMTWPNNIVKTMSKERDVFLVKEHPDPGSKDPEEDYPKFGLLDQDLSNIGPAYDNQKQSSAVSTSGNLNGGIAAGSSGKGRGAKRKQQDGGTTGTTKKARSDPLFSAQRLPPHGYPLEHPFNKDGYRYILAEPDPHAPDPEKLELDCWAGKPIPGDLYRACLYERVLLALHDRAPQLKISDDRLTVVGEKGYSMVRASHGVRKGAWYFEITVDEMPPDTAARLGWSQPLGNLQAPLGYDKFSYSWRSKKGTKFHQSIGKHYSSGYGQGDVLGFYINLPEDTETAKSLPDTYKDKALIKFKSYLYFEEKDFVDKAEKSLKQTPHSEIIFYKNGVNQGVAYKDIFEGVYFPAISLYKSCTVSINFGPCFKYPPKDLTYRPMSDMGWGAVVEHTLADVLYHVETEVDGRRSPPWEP
Chain of MLL2 Complex (Q9C005 whole entry, further chain): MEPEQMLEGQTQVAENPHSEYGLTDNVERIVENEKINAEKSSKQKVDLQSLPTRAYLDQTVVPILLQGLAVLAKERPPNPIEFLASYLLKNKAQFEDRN
Chain of MLL2 Complex (Q15291 whole entry, further chain): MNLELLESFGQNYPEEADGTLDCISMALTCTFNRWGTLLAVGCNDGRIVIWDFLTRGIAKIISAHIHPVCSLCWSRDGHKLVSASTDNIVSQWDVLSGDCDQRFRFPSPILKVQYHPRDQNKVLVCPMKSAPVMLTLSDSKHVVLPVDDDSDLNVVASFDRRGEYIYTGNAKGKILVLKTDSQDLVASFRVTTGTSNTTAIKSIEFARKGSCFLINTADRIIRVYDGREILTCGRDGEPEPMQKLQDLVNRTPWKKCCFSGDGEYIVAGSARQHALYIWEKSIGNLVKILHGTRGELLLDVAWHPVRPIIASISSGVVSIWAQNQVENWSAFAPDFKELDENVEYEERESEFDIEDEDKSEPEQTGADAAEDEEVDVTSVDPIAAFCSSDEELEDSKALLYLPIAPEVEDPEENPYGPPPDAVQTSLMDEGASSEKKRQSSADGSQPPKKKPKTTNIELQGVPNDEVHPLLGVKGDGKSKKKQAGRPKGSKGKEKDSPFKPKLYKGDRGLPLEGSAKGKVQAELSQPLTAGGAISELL
Chain of SETD2 (Q9BYW2 whole entry): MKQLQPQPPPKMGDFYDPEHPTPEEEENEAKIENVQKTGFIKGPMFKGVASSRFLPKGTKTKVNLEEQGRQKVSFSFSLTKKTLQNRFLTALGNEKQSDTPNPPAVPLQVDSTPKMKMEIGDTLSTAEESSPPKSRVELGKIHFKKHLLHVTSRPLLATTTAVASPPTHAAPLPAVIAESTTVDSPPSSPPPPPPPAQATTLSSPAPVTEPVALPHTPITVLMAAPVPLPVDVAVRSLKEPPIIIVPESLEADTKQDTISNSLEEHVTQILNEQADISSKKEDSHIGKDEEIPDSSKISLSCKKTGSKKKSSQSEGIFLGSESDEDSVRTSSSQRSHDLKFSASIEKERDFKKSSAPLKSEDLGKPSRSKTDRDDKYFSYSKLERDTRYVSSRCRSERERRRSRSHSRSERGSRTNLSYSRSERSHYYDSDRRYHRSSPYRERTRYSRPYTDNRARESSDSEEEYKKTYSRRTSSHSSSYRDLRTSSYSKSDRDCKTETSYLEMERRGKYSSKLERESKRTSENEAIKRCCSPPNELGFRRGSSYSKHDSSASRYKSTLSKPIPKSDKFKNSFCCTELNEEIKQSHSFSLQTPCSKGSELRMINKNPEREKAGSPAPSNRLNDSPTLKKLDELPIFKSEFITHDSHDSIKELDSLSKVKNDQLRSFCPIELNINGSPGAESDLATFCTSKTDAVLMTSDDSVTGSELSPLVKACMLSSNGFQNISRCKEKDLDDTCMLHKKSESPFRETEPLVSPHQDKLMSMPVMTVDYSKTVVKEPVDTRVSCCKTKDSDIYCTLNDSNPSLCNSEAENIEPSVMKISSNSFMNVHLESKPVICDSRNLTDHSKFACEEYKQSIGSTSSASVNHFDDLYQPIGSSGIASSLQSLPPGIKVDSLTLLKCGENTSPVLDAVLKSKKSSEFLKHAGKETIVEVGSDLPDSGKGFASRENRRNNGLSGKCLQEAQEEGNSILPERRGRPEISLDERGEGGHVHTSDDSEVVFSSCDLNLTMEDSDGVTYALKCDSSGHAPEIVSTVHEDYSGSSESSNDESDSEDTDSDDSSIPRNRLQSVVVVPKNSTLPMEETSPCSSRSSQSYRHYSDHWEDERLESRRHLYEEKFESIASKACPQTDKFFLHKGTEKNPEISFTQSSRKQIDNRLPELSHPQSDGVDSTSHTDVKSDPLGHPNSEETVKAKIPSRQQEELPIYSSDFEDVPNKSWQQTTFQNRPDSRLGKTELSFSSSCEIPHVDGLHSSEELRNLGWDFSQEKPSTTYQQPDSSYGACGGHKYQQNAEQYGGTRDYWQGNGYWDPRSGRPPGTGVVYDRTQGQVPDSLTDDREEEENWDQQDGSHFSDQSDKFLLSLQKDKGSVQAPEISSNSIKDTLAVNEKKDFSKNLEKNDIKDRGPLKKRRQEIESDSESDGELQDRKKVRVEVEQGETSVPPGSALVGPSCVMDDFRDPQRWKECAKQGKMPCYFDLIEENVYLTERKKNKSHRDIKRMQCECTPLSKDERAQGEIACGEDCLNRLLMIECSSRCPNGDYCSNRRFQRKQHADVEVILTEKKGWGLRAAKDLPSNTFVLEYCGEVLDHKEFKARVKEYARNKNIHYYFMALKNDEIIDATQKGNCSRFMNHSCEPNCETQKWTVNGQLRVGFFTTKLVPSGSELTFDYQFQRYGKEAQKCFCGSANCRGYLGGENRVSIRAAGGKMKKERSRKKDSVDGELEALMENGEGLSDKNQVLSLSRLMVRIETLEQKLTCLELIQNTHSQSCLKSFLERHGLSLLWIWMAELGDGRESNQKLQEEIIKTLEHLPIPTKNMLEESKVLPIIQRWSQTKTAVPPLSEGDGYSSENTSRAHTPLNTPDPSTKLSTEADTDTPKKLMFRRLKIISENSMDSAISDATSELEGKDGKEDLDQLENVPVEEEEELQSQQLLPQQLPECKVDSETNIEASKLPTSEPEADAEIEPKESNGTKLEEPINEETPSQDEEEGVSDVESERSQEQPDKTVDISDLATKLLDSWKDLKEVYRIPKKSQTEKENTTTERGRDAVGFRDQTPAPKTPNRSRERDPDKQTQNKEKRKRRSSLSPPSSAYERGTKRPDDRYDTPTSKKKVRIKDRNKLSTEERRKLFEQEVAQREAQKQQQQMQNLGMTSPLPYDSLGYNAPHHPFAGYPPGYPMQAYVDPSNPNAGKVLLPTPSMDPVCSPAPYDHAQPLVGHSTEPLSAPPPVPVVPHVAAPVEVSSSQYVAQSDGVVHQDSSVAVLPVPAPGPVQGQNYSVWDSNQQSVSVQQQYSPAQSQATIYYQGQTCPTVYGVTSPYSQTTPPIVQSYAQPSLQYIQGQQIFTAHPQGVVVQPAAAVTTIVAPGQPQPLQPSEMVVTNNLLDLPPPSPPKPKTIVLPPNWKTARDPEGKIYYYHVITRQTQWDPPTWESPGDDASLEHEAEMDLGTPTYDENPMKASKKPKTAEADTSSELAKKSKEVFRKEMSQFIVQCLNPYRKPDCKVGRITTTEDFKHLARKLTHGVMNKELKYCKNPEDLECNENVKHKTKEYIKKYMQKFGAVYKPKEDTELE
Chain of SUV39H2 (Q9H5I1 whole entry): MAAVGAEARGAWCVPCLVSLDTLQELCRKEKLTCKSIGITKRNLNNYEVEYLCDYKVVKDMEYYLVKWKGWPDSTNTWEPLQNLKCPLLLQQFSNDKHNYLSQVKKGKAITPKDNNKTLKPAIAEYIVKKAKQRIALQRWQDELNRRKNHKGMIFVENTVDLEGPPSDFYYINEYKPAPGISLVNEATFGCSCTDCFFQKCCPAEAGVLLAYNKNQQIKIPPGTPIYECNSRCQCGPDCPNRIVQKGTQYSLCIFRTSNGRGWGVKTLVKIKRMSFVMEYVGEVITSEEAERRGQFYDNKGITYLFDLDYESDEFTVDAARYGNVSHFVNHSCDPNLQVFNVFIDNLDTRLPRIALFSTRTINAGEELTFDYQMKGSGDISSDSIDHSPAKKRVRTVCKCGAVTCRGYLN
Chain of METTL21A (Q8WXB1 whole entry): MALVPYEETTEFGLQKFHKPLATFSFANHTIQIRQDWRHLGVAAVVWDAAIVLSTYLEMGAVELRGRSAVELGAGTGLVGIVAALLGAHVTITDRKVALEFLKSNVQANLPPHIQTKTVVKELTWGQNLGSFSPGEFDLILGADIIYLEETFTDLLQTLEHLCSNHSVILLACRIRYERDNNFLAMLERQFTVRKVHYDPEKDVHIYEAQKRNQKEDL
Chain of PRMT6 (Q96LA8 whole entry): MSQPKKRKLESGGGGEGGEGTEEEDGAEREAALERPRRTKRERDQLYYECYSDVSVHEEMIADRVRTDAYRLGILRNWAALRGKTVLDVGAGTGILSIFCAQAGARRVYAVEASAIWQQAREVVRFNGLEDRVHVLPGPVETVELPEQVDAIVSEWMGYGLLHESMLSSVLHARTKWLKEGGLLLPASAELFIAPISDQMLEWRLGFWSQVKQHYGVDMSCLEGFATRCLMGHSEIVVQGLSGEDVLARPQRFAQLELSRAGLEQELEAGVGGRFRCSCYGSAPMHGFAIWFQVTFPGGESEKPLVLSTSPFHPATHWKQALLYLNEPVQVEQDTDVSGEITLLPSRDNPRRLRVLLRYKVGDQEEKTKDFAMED

Compound: CN1C(=O)[C@@]23C[C@]4([C@]56C[C@@]78SS[C@@](CO)(C(=O)N7[C@H]5Nc5ccccc56)N(C)C8=O)c5ccccc5N[C@@H]4N2C(=O)[C@]1(CO)SS3 [Chaetocin, reference compound]
- IC50 (NSD3): 85.2 nM
- IC50 (ASH1L): 30.8 nM

Compound: Cc1ccc(NC2=CC(=O)c3sc(C)nc3C2=O)cc1 [Ryuvidine, reference compound]
- IC50 (SET8): 109 nM

Compound: Nc1ncnc2c1ncn2[C@@H]1O[C@H](CSCC[C@H](N)C(=O)O)[C@@H](O)[C@H]1O [SAH, reference compound]
- IC50 (DNMT3b/3L): 19.3 nM
- IC50 (METTL21A): 64600 nM
- IC50 (NSD1): 7510 nM
- IC50 (MLL1 Complex): 205 nM
- IC50 (SUV420H1TV2): 117000 nM
- IC50 (MLL3 Complex): 18900 nM
- IC50 (SETDB1): 1040 nM
- IC50 (DNMT3b): 37.9 nM
- IC50 (NRMT1): 310 nM
- IC50 (SET7/9): 82900 nM
- IC50 (SET1b Complex): 8590 nM
- IC50 (SUV39H2): 44300 nM
- IC50 (GLP): 553 nM
- IC50 (PRMT6): 204 nM
- IC50 (DNMT3a): 154 nM
- IC50 (SETD2): 3060 nM
- IC50 (MLL4 Complex): 816 nM
- IC50 (SMYD3): 14200 nM
- IC50 (PRMT3): 870 nM
- IC50 (MLL2 Complex): 21200 nM

From patent US20260207585A1, “METHODS AND COMPOSITIONS FOR THE TREATMENT OF PARKINSON'S DISEASE, HUNTINGTON'S DISEASE, AMYOTROPHIC LATERAL SCLEROSIS, AND LEARNING DISORDERS” (Cedars-Sinai Medical Center, priority 2022, published 2026)
